The values that follow come from patent US4476128A, “2-Substituted thiazolyl-piperazine compounds, process for preparation thereof and utilizations thereof _” (Mitsuitoatsu Chemicals, Inc., priority 1980, dated 1984).

Where a name gives a salt, the structure may show the parent alone.

In data set [1] the test system is delayed hypersensitivity induced by picryl chloride. As to the kind of experiment: Test of Reinforcement of Delayed Hypersensitivity (picryl chloride, mouse ear thickness). Type of data set: in vivo, ICR male mice. Particulars: 50 mg/Kg oral, simultaneously with sensitization; 24 hours after challenge; * P<0.05, ** P<0.01. From the text:
Various test systems using animals have been proposed for determining the immunopotentiative action. Results of the test of reinforcement of the delayed hypersensitivity, which is a typical test among these tests, will now be described.
This system was used for the test of reinforcement of the delayed hypersensitivity.
One group of eight ICR male mice, each having a body weight of about 30 g, was used for the test.
Sensitization was effected by coating a 7% solution of picryl chloride in a 4/1 mixture of olive oil and acetone on the shaved abdomen of the mouse.
Simultaneously with sensitization, a solution or suspension of the compound of the present invention in a 0.2% solution of carboxymethyl cellulose in a physiological saline was orally administered to the mouse at a dose of 50 mg per Kg of the body weight. To the control group, a 0.2% carboxymethyl cellulose solution in a physiological saline was similarly administered.
The delayed hypersensitivity was challenged 7 days after sensitization by gripping the ear of the mouse by a forceps wrapped with a felt impregnated with a 1% solution of picryl chloride in olive oil and coating the ear with the solution. The thickness of the ear was measured before challenging and 24 hours after challenging and the ratio of increase of the thickness (average value of both the ears in eight mice±standard deviation) was obtained as shown in Table 1.
For comparison, the test was similarly carried out by using Levamisole hydrochloride, and the obtained results are shown in Table 1. F.t tests were carried out. The group in which the test result was significant at a level of P<0.05 was marked by *, and the group in which the test result was significant at a level of P<0.01 was marked by **.

The subject of data set [2] is Sarcoma 180. As to the kind of experiment: Test of Antitumor Effect to Sarcoma 180 by Subcutaneous Administration. Type of data set: in vivo, ICR female mice. To be noted: 20 mg/Kg subcutaneous. As to the method:
To the control group, a physiological saline was similarly administered. […] The diameter D (mm) of the tumor was measured, and the average value and the number N of the living mice were determined to obtain results shown in Table 4.

Data set [3] has as its system Sarcoma 180. As to the kind of experiment: Test of Antitumor Effect to Sarcoma 180 by Oral Administration. In kind it is in vivo, ICR female mice. Here is the method: To the control group, a physiological saline was similarly administered. The dose of the compound was 100 mg per Kg of the body weight. The diameter D (mm) of the tumor was measured, and the average value and the number N of the living mice were determined to obtain results shown in Table 4.

A short description of data set [4]: Test of Acute Toxicity by Oral Administration. In kind it is in vivo, ddY male mice. To be noted: mice, after 7 days. As to the method:
A solution or suspension of the compound in a physiological saline was orally administered to one group of three ddY male mice, and after 7 days, the estimated LD50 value was determined.

The test system of data set [5] is adjuvant arthritis caused by Mycobacterium tuberculosis adjuvant. As to the kind of experiment: Adjuvant Arthritis Test. Particulars: 5 mg/Kg subcutaneous, 9 times, left hind leg, * P<0.05, ** P<0.01. In kind it is in vivo, SD male rats. As to the method:
The adjuvant arthritis in rats caused by injection of a Mycobacterium tuberculosis adjuvant is often utilized for a model test of chronic rheumatoid arthritis in men.
The mechanism of manifestation of this disease has not completely been elucidated, but it is known that the cellular immunity takes an important role. The immunopotentiative action of the compound of the present invention was tested according to this known adjuvant arthritis test.
A group of ten 9-weeks-old SD male rats were used for the test. In 0.1 ml of fluid paraffin, 0.4 mg of dry dead cells of Mycobacterium tuberculosis were suspended, and the suspension was injected under the heel skin of the right hind leg. The compound of the present invention was subcutaneously administered 9 times as a whole before and after injection of the adjuvant. The test compound was dissolved in a physiological saline and administered at a dose of 5 mg per Kg of the body weight. The swelling volume of the left hind leg as measured during the period of from the day of injection to the day of completion of the test, and the swelling ratio was calculated. For comparison, the test was similarly conducted by using Levamisole hydrochloride. F.t tests were carried out on the obtained test results. The group in which the test result was significant at a level of P<0.05 was marked by *, and the group in which the test result was significant at a level of P<0.01 was marked by **.

The next data set relates to EL-4 leukemic cells. As to the kind of experiment: In-Vitro Test of Inhibition of Growth of Cancer Cell by Macrophage (3H-thymidine take-in). Type of data set: cell-based, C57 BL/6J mouse (EL-4 cells); ddY female mice (macrophages). Particulars: 8 mg/Kg intraperitoneal; for Take-in Ratio (average value, %): macrophages collected after 4 days, 3H-thymidine incorporated into EL-4 cells; for inhibition of take-in of 3H-thymidine by EL-4 cells / macrophage activation (in words): hydrochloride. Here is the method: The results of the test of the action of the effective ingredient of the present invention on the macrophage will now be described with reference to the following Test 3. More specifically, the separated macrophage and EL-4 leukemic cell were mixed and cultured, and ^3 H-thymidine was added to a culture medium and the quantity of ^3 H-thymidine incorporated into the EL-4 cell was determined to examine the activity of the macrophage. When the macrophage is activated by administration of the effective ingredient of the present invention, inhibition of the growth of EL-4 cell, that is, phagocytosis of the cancer cell by the macrophage, is observed. Accordingly, if the take-in amount of ^3 H-thymidine is measured and this amount is reduced, it is confirmed that the macrophage has been activated. Test Procedures: […] The dose was 8 mg per Kg of the body weight. To the control group, a physiological saline was similarly administered. After passage of 4 days, exuded abdominal cells were collected and deposited on a plastic Petri dish to collect macrophages. […] Then, 0.1 μCi of ^3 H-thymidine was added and culturing was further conducted for 16 hours. Cells were collected on a filter paper from the culture medium and the amount of ^3 H-thymidine incorporated in was determined by a liquid scintillation counter.

Turning to `CCN(CC)C(=O)N1CCN(c2nccs2)CC1` [drawing 9], the “Ratio of Increase of Ear Thickness (average value ± standard variation, %)” value in data set [1] was 36.6 ± 3.0%.

For the compound `c1ccc([C@H]2CN3CCSC3=N2)cc1` [Levamisole hydrochloride, reference compound], in the data set with Sarcoma 180 [2], the “antitumor activity (in words)” value was “no substantial antitumor activity”. In addition, the “N: number of living mice, 0 weeks” value in the data set on Sarcoma 180 [2] (0 weeks, group of 6) was 6; in the data set on Sarcoma 180 [3] (100 mg/Kg oral, 0 weeks, group of 6) it was 6. The “D: average diameter (mm) of tumor, 2 weeks” value was 3.6 mm in the data set with Sarcoma 180 [2] (2 weeks) and 8.1 mm with Sarcoma 180 [3] (100 mg/Kg oral once a day, 10 days, 2 weeks). Moreover, the “N: number of living mice, 2 weeks” value is 6 in the data set on Sarcoma 180 [2] (2 weeks, group of 6) and 6 in the data set with Sarcoma 180 [3] (100 mg/Kg oral, 2 weeks, group of 6). In addition, the “D: average diameter (mm) of tumor, 4 weeks” value in the data set with Sarcoma 180 [2] (4 weeks) is on record as 14.1 mm; in the data set on Sarcoma 180 [3] (100 mg/Kg oral once a day, 10 days, 4 weeks), 16.8 mm. Further, the “N: number of living mice, 4 weeks” value in the data set on Sarcoma 180 [2] (4 weeks, group of 6) is 6; with Sarcoma 180 [3] (100 mg/Kg oral, 4 weeks, group of 6) it was 6. Also, the “D: average diameter (mm) of tumor, 6 weeks” value was 22.2 mm in the data set with Sarcoma 180 [2] (6 weeks) and 23.1 mm in the data set on Sarcoma 180 [3] (100 mg/Kg oral once a day, 10 days, 6 weeks). Besides, the “N: number of living mice, 6 weeks” value in the data set on Sarcoma 180 [2] (6 weeks, group of 6) is 6; with Sarcoma 180 [3] (100 mg/Kg oral, 6 weeks, group of 6) it was 6. Further, the “D: average diameter (mm) of tumor, 8 weeks” value came out at 26.8 mm in the data set with Sarcoma 180 [2] (8 weeks) and 27.4 mm with Sarcoma 180 [3] (100 mg/Kg oral once a day, 10 days, 8 weeks). In addition, the “N: number of living mice, 8 weeks” value in the data set on Sarcoma 180 [2] (8 weeks, group of 6) worked out at 3; in the data set with Sarcoma 180 [3] (100 mg/Kg oral, 8 weeks, group of 6), 6. Besides, the “D: average diameter (mm) of tumor, 10 weeks” value in the data set with Sarcoma 180 [2] (10 weeks) stood at 23.8 mm; with Sarcoma 180 [3] (100 mg/Kg oral once a day, 10 days, 10 weeks) it was 25.5 mm. The “N: number of living mice, 10 weeks” value in the data set with Sarcoma 180 [2] (10 weeks, group of 6) stood at 2; with Sarcoma 180 [3] (100 mg/Kg oral, 10 weeks, group of 6), 5. The “antitumor action (in words)” value in the data set on Sarcoma 180 [3] (100 mg/Kg oral, repeatedly) is “no substantial antitumor action was observed”. Moreover, in data set [1], the “Ratio of Increase of Ear Thickness (average value ± standard variation, %)” value stood at 33.9 ± 3.0%. For the same compound, the “estimated LD50 value” in data set [4] was 150 to 200 mg/kg. Besides, the “Swelling Ratio (average value ± standard variation, %), 15 days” value in data set [5] (15 days) was found to be 54.6 ± 11.3%. Moreover, the “Swelling Ratio (average value ± standard variation, %), 18 days” value in data set [5] (18 days) was 61.7 ± 9.8%. For the same compound, the “Swelling Ratio (average value ± standard variation, %), 21 days” value in data set [5] (21 days) came to 73.3 ± 14.6%. For the same compound, the “Take-in Ratio (average value, %)” value in the data set on EL-4 leukemic cells is recorded as 53.3%. In addition, the results for the “inhibition of take-in of 3H-thymidine by EL-4 cells / macrophage activation (in words)” value with EL-4 leukemic cells and with EL-4 leukemic cells (listed as Levamisole) were “does not exhibit such action” and “hardly exhibits such action”, respectively.

For the compound `CCN(CC)C(=O)N1CCN(c2nc(-c3ccccc3)cs2)CC1` [drawing 12], the “Take-in Ratio (average value, %)” value in the data set with EL-4 leukemic cells came out at 21.0%.

Take `CCN(CC)C(=O)N1CCN(c2nccs2)CC1` [drawing 13]: in the data set on EL-4 leukemic cells, the “Take-in Ratio (average value, %)” value stood at 25.8%.

Turning to `CCN(CC)C(=O)N1CCN(c2nc(-c3ccccc3)cs2)CC1` [drawing 8], in data set [1], the “Ratio of Increase of Ear Thickness (average value ± standard variation, %)” value came out at 37.5 ± 2.1%.
